Among the data in PubChem BioAssay (NCI) are GI50 and TGI values, retold here.

Molecules are shown by their SMILES. “And” between values parts separate entries of the source, which are not always exact repeats. Equal values may be shown once.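 A five-concentration, 48-hour dose response in 96-well plates underlies each endpoint, interpolated linearly between surrounding concentrations. The concentration for 50% growth inhibition is given as GI50. TGI is the concentration that stops growth completely.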

The test system of the assay is MDA-MB-468 breast. Nature of the assay: NCI-60 cell line screen, 48 h.
Consider `O=C(/C=C/c1cc2ccccc2[nH]c1=O)c1ccc(O)cc1`, for which the GI50 is 2.12 µM and the TGI is 5.3 µM.

On to `CN1CCN(CCCn2c3c(sc4ncccc43)c(=O)n3nnc(-c4ccccc4)c23)CC1`, for which the GI50 is 1.72 µM and the TGI was 3.25 µM.

For the molecule `O=[N+]([O-])c1ccc(NC(c2ccccc2)c2ccc3cccnc3c2O)cc1` (configuration not stated), the GI50 was 0.363 µM and the TGI was found to be 2.05 µM.

As to `Cc1ccccc1N=C(c1ccccc1)C1C(=O)c2ccccc2C1=O`, the GI50 was 6.22 µM and the TGI was over 100 µM.

In the case of `Clc1ccc(Nc2nnc(COc3ccccc3)c3ccccc23)cc1`, the GI50 was 1.49 µM and the TGI turned out to be 7.62 µM.

Consider `CC1(/C=C/c2ccc(-c3ccccc3)cc2)CCn2cnc3ncnc(c32)N1O` (configuration not stated), for which the GI50 is 0.276 µM and the TGI was determined as 0.872 µM.

Consider `O=c1[nH]c(=O)n(C2C[C@@H](O)[C@@H](CO)O2)cc1F` (some centres not stated), for which the GI50 was 0.0444 µM and the TGI was found to be 36.3 µM.

As for `CCN1C(=O)N(CC)C2C1NN=c1s/c(=C\c3ccc(Br)cc3)c(=O)n12` (configuration not stated), the GI50 is 0.0697 µM and the TGI is 0.516 µM.

In the case of `Cn1cc(-c2[nH]c3cc(NC(=O)[C@H](N)C4CCCCC4)cc4c3c2C=NNC4=O)cn1`, the GI50 is 0.164 µM and 0.503 µM; the TGI was 0.827 µM and > 5.3 µM.

As to `O=C1NC(=O)/C(=C/c2ccc3nccc(-c4ccncc4)c3c2)S1`, the GI50 was 0.185 µM and the TGI was determined as 1.17 µM.

Take `COc1ccc(CNCCN2C(=O)c3ccc4c5c(ccc(c35)C2=O)C(=O)N(CCNCc2ccc(OC)c(OC)c2OC)C4=O)c(OC)c1OC`: the GI50 is 0.0822 µM and the TGI is 0.164 µM.

In the case of `O=C(COc1ccc(Cl)cc1Cl)NNc1ccc([N+](=O)[O-])cc1`, the GI50 was 37.5 µM and the TGI was over 100 µM.

For `C#Cc1cccc(NC(=O)C2CCCCN2C(=O)CCl)c1` (configuration not stated), the GI50 is 11.2 µM and the TGI came to 34.1 µM.

Turning to `C[C@H]1O[C@@H](O[C@H]2[C@@H](O)C[C@H](O[C@H]3[C@@H](O)C[C@H](O[C@H]4CC[C@]5(C)C6CC[C@]7(C)[C@@H](C8=CC(=O)OC8)CC[C@]7(O)C6CC[C@@H]5C4)O[C@@H]3C)O[C@@H]2C)C[C@H](O)[C@@H]1O` (some centres not stated), the GI50 was 0.0667 µM and the TGI is 0.202 µM.

`O=C(Nc1ccc([N+](=O)[O-])cc1Cl)c1cc(Cl)ccc1O`: the GI50 was 0.121 µM and 0.26 µM; the TGI was 0.388 µM and 0.782 µM.

As to `Cc1cccc(Nc2ncc(-c3ccccc3)o2)c1`, the GI50 is 7.05 µM and the TGI was over 25 µM.

Take `c1ccc2c(c1)CCCc1nnc3nc4ccccc4n3c1-2`: the GI50 is 6.55 µM and the TGI was determined as 74.7 µM.

`COc1cc(/C=C/[N+](=O)[O-])cc(OC)c1`: the GI50 is 1.64 µM and the TGI turned out to be 3.53 µM.

As for `CCCCCCCN(CCCCCCC)C(=N)c1ccc(OC)c2ccccc12`, the GI50 was 1.23 µM and the TGI is 2.81 µM.

`Cc1cc(C(=O)NOCCO)c(Nc2ccc(I)cc2F)n(C)c1=O`: the GI50 is > 10 µM and 68.2 µM; the TGI was over 100 µM.

As for `O=C(Nc1c(Cl)cccc1Cl)Oc1cccc2cccnc12`, the GI50 was 2.91 µM and the TGI amounted to 13.9 µM.

Take `O=C(Nc1n[nH]c2cc(-c3ccc(F)cc3)ccc12)C1CC1`: the GI50 is 3.42 µM and the TGI was over 16.2 µM.

Turning to `O=C(Nc1cccc(Cl)c1)Nc1cc(C(F)(F)F)ccc1Cl`, the GI50 was 1.99 µM and the TGI stood at 4.73 µM.

For `COc1cc(N2CCN(C(C)C)CC2)ccc1Nc1nc(Nc2ccc(F)cc2C(N)=O)c2cc[nH]c2n1`, the GI50 is 0.999 µM and the TGI was 5.49 µM.

For `Cc1c(-c2c(F)cc(C(N)=O)c3[nH]c4c(c23)CC[C@H](C(C)(C)O)C4)cccc1-n1c(=O)c2cccc(F)c2n(C)c1=O`, the GI50 is 3.06 µM and the TGI is over 100 µM.

Consider `CNC(=O)c1cc(Oc2ccc(NC(=O)Nc3ccc(Cl)c(C(F)(F)F)c3)cc2)ccn1`, for which the GI50 is 1.42 µM and 2.03 µM and 2.09 µM; the TGI is 7.91 µM and 8.05 µM and 7.7 µM.

Consider `COc1cccc(/C=C/C(=O)c2cc3c(N)c(C(=O)Nc4ccccc4)sc3nc2C)c1`, for which the GI50 was 0.906 µM and the TGI came out at 1.84 µM.

As for `CS(=O)(=O)Nc1cc(-c2ccc3ncnc(Nc4ccc(OCc5ccccn5)c(Cl)c4)c3c2)cnc1Cl`, the GI50 is 0.156 µM and the TGI was determined as 0.78 µM.

For the molecule `COc1cc2cc(Oc3ccc(NC(=O)c4cccc(C(F)(F)F)c4)cc3)c(C)nc2cc1OCCN1CCCCC1`, the GI50 was 14.1 µM and the TGI came to 29.1 µM.

Take `CC(=O)OCc1cc[c]([Hg][Cl])o1`: the GI50 is 1.5 µM and the TGI came out at 3.44 µM.

In the case of `Nc1cc2c3ccccc3ccc2c2ccccc12`, the GI50 was over 100 µM and the TGI was over 100 µM.

For `c1ccc(OCC[P+](c2ccccc2)(c2ccccc2)c2ccccc2)cc1`, the GI50 is 0.152 µM and the TGI worked out at 0.736 µM.

With `COc1cc2cc(C(=O)Nc3ccccc3)c(N)nc2cc1OC`, the GI50 is 21.9 µM and the TGI is over 100 µM.

Take `C=C1C(=O)O[C@H]2[C@H]1CC/C(COC(=O)NCCc1ccc(Br)cc1)=C\CC[C@@]1(C)O[C@@H]21`: the GI50 was 0.841 µM and the TGI was 2.47 µM.

Turning to `Fc1ccc(Nc2ccnc(N3CCN(c4ccnc5cc(Cl)ccc45)CC3)n2)cc1`, the GI50 was 2.41 µM and the TGI turned out to be 19.3 µM.

As to `COC1C[C@H](O[C@@H]2C[C@H](O[C@@H]3C[C@H](O[C@@H]4C(=O)c5c(cc6cc(O[C@H]7C[C@@H](O[C@H]8C[C@@H](O)[C@H](O)C(C)O8)[C@H](O)C(C)O7)c(C)c(O)c6c5O)C[C@H]4C(OC)C(=O)[C@@H](O)[C@@H](C)O)OC(C)[C@H]3O)OC(C)[C@@H]2O)OC(C)[C@@H]1O` (some centres not stated), the GI50 is 0.109 µM and the TGI was determined as 0.723 µM.

For the molecule `COc1ccc(COc2ccc(Cc3cnc(N)nc3N)cc2OC)cc1`, the GI50 is 3.27 µM and the TGI was found to be 19.6 µM.

Consider `COc1ccc(N2CCN(c3nc(-c4ccccn4)nc4sc5c(c34)CCCCCC5)CC2)cc1`, for which the GI50 was 4.11 µM and the TGI is over 100 µM.

Turning to `COc1ccc(C2CC(=O)Nc3c2c(C)nn3-c2nc3ccccc3[nH]2)cc1OC` (configuration not stated), the GI50 was 3.09 µM and the TGI amounted to 16.8 µM.

`Nc1nc(N)c2c(n1)NC(c1ccc(Cl)cc1)C1CCc3ccccc3C1=N2` (configuration not stated): the GI50 was 1.6 µM and the TGI turned out to be 14.5 µM.

As to `Cn1cc(-c2nc(-c3c[nH]c4ccccc34)cs2)c2cccnc21`, the GI50 is 0.252 µM and the TGI was found to be 0.827 µM.
